Test results reported in patent US20230312550A1, “N-(2-(4-CYANOTHIAZOLIDIN-3-YL)-2-OXOETHYL)-QUINOLINE-4-CARBOXAMIDES” (AstraZeneca AB, priority 2020, published 2023).
In brackets after ≈: the same amount, converted by molar mass.

Tests used:
[1] = Metabolic stability in human hepatocytes (hHep); assay type: in vitro ADME; conditions: n = 1 or geometric mean of n = 2
[2] = biological target: human dipeptidylpeptidase 7 (hDPP7) (Homo sapiens (Human), UniProt Q9UHL4); assay: hDPP7 inhibition assay; assay type: biochemical; conditions: hDPP7 15 nM, Ala-Pro-amino-methylcoumarin 5 μM, n = 1
Method: Compounds were tested in a biochemical inhibition assay using human dipeptidylpeptidase 7 (hDPP7) enzyme at 15 nM FAC (BPS Bioscience, #80070) and the substrate Ala-Pro-amino-methylcoumarin (BPS Bioscience, #80305) at 5 μM FAC. The enzymatic reactions were conducted in duplicate at rt for 30 min in 50 μL DPP assay buffer (BPS Bioscience, #80300). Compound solutions (in DMSO) at 10 CR, 3 fold dilution series were prepared in assay buffer ten-fold higher than the final concentration, and 5 μL of the dilution was added to a 50 μL reaction so that the highest compound concentration was 100 μM FAC and the concentration of DMSO was 1% in all wells. The plates were read on a Tecan Infinite M1000 microplate reader with excitation 340 nm and emission 460 nm. Data were analyzed in Graph Pad Prism. IC50 values were determined by plotting % inhibition versus log compound concentration and using a one site dose response model. Raw data signals were normalized using 1% DMSO as 0% control and no enzyme as 100% inhibitor control.

[3] = Caco-2 cell permeability; conditions: human
Method: Caco-2 cell permeability was measured as described in Mol Pharm 2017, 14, 1601.

[4] = Kinetic solubility; conditions: kinetic from dmso stock, Solubility, kinetic solubility; n = 1 or average of n = 2-3
Method: Kinetic solubility was measured as described in Comput Aided Mol Des 2015, 29, 795.

[5] = Metabolic stability in human liver microsomes (HLM); conditions: human, HLM CLint, n = 1 or average of n = 2-3
Method: Metabolic stability in HLM was measured as described in J Comput Aided Mol Des 2015, 29, 795.

[6] = biological target: Fibroblast Activation Protein alpha (FAP) (Mus musculus (Mouse), UniProt P97321); assay: in vivo
Chain of Fibroblast Activation Protein alpha (FAP) (P97321 24-761): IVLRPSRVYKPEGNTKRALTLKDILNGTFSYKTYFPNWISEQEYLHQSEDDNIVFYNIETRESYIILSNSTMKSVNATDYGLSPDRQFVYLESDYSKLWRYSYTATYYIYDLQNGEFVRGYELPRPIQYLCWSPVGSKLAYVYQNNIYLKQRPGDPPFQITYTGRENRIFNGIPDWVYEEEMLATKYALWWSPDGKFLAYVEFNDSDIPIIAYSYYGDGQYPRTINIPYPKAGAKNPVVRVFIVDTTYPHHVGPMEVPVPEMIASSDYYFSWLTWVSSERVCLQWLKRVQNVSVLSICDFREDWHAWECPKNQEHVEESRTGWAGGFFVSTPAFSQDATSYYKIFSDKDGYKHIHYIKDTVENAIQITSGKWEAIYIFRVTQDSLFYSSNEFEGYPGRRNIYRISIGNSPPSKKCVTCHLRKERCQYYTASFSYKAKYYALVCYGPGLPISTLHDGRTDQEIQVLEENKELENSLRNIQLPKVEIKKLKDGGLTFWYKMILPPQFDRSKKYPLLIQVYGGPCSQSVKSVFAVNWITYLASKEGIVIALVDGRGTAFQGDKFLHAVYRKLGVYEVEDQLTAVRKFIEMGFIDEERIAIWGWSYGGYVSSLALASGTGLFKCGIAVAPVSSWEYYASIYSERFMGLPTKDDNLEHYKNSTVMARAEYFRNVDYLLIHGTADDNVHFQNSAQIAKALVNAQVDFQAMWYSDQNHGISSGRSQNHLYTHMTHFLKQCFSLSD
Method: The effect of test compound on FAP enzyme activity in mouse plasma was evaluated in an enzymatic assay using the Fibroblast Activation Protein alpha (FAP) specific fluorogenic substrate dipeptide-Coumarin, Ala-Pro-AMC, (ARI-3144).
Male C57Bl/6 mice (Charles River, Germany), 8 weeks of age, were single housed in a temperature-controlled room with a 12-hour light/dark cycle (06:00-18:00 light). The mice had ad libitum access to water and rodent chow diet (R70, Lactamin, Kimstad, Sweden), and were acclimated for 5 days upon arrival. After acclimation, all mice received a single oral dose of test compound (3 or 10 mg/kg). Blood samples for whole blood compound exposure measurements were taken at 0.25, 0.5, 1, 2, 4, 8 and 24 h post oral dosing. Samples were collected in EDTA capillary tubes (20 μL, K2E, REF 19.447) and were transferred to a 96-deep well plate (NUNC, Thermo Discher Scientific) and stored at −20° C. until further analyses were performed. Blood samples for plasma FAP enzyme activity measurements were taken at 0, 0.25, 0.5, 1, 2, 8 and 24 h post dosing. 25 μL of whole blood was collected in EDTA Microvette® CB 300 (K2E, REF 16.444.100) tubes, and were centrifuged at 4,000×g for 5 min. 10 μL of plasma was then transferred to PCR tubes and stored at −20° C. until further analysis was performed. All blood samples were taken by vena saphena puncture.
Recombinant human FAP (PB-17-1837, construct PL-17-0278, cd33-FAP (27-757)-6His, Mw85926 Da) was used as a standard for this assay. […] The plates were read on a Beckman Paradigm reader with excitation 360 nm and emission 465 nm. Fluorescence measurements were performed with kinetic read every 5 minutes for 60 min at room temperature. Data were analyzed in Excel (IDBS XLfit Add-In) using a Linear Regression (y=k*x+m) model to prepare a human recombinant FAP standard curve.
On the day of the assay, plasma was diluted (1:2) to 20 μL volume in buffer (PBS, 0.1% BSA) and 7.5 μL was transferred to the assay plate (384-well black, fluotrack PS, Greiner 781076). Ala-Pro-AMC (stock solution in 10 mM DMSO) was diluted in buffer (PBS, 0.1% BSA) to 150 μM concentration (180 μL stock solution to 12 mL buffer) and 7.5 μL added to the assay plate followed by a pipetting mix. The plates were read on a Beckman Paradigm reader with excitation 360 nm and emission 465 nm. Fluorescence measurements were performed with kinetic read every 5 minutes for 60 minutes at room temperature. As noted above, FAP cleaves Ala-Pro-AMC to release free AMC which is measured as a fluorescent signal.
The in vivo potency IC50 of each test compound was then estimated by relating the plasma exposure C of the compound to target engagement E in plasma using the following equation:
where E0 is the FAP baseline in plasma prior to dosing and Imax is the maximum effect of the compound. Data from each target engagement experiment were considered separately and therefore slightly different estimates of FAP baseline for each compound were obtained. […] The parameter estimation was done in Phoenix WinNonlin Certara build 8.1.0.3530 with the algorithm ‘Naïve pooled’ as parameter estimation method.

[7] = Metabolic stability in rat hepatocytes (rHep); conditions: n = 1 or geometric mean of n = 2-3
[8] = biological target: human dipeptidylpeptidase 9 (hDPP9) (Homo sapiens (Human), UniProt Q86TI2); assay: hDPP9 inhibition assay; assay type: biochemical; conditions: hDPP9 0.4 nM, Ala-Pro-amino-methylcoumarin 5 μM, n = 1
Chain of human dipeptidylpeptidase 9 (hDPP9) (Q86TI2 whole entry): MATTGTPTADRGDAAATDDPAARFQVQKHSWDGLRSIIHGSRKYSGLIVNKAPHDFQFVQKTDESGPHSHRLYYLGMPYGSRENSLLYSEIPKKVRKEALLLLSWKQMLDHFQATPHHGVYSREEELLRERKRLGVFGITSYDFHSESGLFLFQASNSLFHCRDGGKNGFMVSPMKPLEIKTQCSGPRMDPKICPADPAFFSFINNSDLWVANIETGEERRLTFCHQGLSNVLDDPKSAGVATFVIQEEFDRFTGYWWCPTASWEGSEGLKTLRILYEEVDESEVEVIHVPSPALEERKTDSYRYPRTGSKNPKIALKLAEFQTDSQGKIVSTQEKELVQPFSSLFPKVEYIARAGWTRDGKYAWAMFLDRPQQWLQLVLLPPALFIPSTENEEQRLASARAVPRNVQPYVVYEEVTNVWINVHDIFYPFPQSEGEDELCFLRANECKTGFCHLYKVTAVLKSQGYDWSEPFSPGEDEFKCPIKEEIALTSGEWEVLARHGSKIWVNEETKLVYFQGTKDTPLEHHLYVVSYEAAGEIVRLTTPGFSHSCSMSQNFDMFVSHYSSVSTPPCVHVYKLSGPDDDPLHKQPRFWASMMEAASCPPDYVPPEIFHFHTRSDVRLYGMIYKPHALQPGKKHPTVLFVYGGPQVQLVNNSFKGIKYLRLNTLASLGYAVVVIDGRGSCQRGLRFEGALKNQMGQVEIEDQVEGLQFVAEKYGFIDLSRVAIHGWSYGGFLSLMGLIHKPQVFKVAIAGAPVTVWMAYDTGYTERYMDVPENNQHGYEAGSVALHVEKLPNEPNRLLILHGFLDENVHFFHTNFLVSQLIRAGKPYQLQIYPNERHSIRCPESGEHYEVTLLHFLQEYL
Method: Compounds were tested in a biochemical inhibition assay using human dipeptidylpeptidase 9 (hDPP9) enzyme at 0.4 nM FAC (BPS Bioscience, #80090) and the substrate Ala-Pro-amino-methylcoumarin (BPS Bioscience #80305) at 5 μM FAC. The enzymatic reactions were conducted in duplicate at rt for 30 min in 50 μL DPP assay buffer (BPS Bioscience, #80300). […] The plates were read on a Tecan Infinite M1000 microplate reader with excitation 340 nm and emission 460 nm. Data were analyzed in Graph Pad Prism. IC50 values were determined by plotting % inhibition versus log compound concentration and using a one site dose response model. Raw data signals were normalized using 1% DMSO as 0% control and no enzyme as 100% inhibitor control.

[9] = biological target: hFAP (M39-A757) (Homo sapiens (Human), UniProt Q12884); assay: hFAP binding assay (surface plasmon resonance); conditions: SPR, 20° C.; for hFAP Binding assay k(off) / hFAP Binding assay k(on): single cycle kinetics; for Kd: n = 1 or geometric mean n = 2-4
Chain of hFAP (M39-A757) (Q12884 39-757): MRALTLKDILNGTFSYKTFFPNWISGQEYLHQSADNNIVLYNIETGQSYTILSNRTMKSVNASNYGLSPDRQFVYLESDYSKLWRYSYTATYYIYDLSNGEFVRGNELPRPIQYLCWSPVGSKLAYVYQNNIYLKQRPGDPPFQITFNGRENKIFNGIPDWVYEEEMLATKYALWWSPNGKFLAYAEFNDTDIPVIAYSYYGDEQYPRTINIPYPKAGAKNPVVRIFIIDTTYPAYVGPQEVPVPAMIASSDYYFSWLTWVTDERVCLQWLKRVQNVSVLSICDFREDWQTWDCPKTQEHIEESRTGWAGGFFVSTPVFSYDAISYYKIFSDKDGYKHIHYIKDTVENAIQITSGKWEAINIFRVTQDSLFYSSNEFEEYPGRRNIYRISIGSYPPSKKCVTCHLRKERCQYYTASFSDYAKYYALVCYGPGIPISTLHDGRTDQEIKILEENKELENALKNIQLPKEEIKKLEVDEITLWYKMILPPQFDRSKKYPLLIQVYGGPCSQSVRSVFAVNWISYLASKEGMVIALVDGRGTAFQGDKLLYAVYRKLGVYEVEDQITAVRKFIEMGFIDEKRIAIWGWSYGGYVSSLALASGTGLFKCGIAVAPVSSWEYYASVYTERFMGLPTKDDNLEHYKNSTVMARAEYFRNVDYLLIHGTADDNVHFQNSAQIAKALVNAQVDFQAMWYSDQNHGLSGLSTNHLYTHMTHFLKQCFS

[10] = biological target: FAP (Mus musculus (Mouse), UniProt P97321); assay: FAP plasma inhibition assay, mouse plasma; assay type: biochemical; conditions: mouse plasma diluted 1:67, Ala-Pro-AMC 75 μM
Chain of FAP (Mus musculus (Mouse), UniProt P97321) (P97321 24-761): as the sequence (P97321 24-761) above
In short: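 K2EDTA plasma served as enzyme source, human diluted 1:40 and mouse 1:67, in PBS with 0.1% BSA. Compounds ran as a 10-point 3-fold series from 500 nM final, in duplicate, 40 min at rt in the dark, with fluorescence read against a pre-substrate blank. IC50 came from % inhibition versus log concentration.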

[11] = biological target: Prolyl endopeptidase, Prolyl Oligopeptidase (hPREP) (Homo sapiens (Human), UniProt P48147); assay: hPrep inhibition assay; assay type: biochemical; conditions: hPREP 0.6 nM, Z-Gly-Pro-amino-methylcoumarin 50 μM; read-out: PREP IC50
Chain of Prolyl endopeptidase, Prolyl Oligopeptidase (hPREP) (P48147 whole entry): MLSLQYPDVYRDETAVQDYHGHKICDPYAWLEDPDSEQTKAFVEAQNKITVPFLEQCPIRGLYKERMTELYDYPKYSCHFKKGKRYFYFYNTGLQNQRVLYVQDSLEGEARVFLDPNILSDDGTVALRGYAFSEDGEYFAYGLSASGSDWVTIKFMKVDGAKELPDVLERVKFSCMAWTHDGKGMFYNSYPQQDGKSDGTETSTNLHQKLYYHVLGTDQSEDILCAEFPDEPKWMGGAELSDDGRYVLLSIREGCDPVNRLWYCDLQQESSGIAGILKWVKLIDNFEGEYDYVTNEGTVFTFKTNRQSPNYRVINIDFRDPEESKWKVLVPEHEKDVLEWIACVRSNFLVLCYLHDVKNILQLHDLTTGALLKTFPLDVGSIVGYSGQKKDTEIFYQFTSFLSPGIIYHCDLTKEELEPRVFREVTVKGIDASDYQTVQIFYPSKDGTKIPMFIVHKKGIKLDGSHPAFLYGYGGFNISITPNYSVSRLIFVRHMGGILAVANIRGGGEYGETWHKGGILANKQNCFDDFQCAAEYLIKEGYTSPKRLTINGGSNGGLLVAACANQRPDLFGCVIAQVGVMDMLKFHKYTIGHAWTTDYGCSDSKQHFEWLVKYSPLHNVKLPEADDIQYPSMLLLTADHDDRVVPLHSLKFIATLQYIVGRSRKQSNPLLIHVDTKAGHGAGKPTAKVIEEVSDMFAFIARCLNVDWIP
In short: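 Recombinant human PREP at 0.6 nM final with Z-Gly-Pro-AMC substrate at 50 μM final in Tris-HCl pH 7.5, NaCl, Triton X-100, glutathione; 15 min rt preincubation then 20 min rt reaction in dark. AMC fluorescence (ex 340/em 460 nm); IC50 from one-site dose-response fit of % inhibition.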

[12] = biological target: T1, FAP (Homo sapiens (Human), UniProt Q12884); assay: hFAP inhibition assay; assay type: biochemical; conditions: hFAP […], Ala-Pro-AMC 20 μM; n = 1 or geometric mean n = 2-3
In short: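 Human FAP (0.48 nM) in 100 mM Tris HCl, 100 mM NaCl, 0.05% Chaps, pH 7.4 was preincubated 15 min at rt in the dark with compounds (10-point, 3-fold series from 50 μM). Substrate was added from a 40 μM solution, then 30 min at rt. Fluorescence read at ex 340/em 460 nm; IC50 from one-site dose-response fit of % inhibition.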
Target sequence in this assay (Q12884 38-760): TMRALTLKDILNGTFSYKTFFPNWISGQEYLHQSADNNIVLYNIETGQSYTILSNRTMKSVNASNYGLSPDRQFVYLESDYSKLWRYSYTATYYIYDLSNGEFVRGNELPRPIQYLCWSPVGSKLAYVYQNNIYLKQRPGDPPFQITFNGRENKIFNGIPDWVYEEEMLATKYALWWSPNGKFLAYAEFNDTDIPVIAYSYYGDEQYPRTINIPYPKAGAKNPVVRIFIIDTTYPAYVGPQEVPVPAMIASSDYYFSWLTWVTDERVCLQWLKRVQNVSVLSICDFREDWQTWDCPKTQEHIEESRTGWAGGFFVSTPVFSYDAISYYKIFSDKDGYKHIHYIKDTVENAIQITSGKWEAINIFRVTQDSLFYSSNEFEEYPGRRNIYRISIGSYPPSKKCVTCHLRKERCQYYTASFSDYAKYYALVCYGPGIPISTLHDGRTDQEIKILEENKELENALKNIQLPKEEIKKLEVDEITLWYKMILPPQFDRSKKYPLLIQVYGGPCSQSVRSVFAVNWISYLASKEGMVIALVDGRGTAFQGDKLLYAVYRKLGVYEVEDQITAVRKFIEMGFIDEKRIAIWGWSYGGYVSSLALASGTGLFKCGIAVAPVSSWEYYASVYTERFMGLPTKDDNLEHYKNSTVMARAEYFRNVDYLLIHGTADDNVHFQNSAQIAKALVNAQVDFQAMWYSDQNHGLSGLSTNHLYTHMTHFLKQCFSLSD

[13] = biological target: human Fibroblast activation protein alpha (hFAP) (Homo sapiens (Human), UniProt Q12884); assay: hFAP inhibition assay (tight binders); assay type: biochemical; conditions: Ala-Pro-AMC 20 μM, n = 1 or geometric mean n = 2-6; further: hFAP 2.4 pM
Chain of human Fibroblast activation protein alpha (hFAP) (Q12884 38-760): as above
Method: The plates were read on a PHERAstar® reader with excitation 340 nm and emission 460 nm. Data were analyzed in Genedata Screener®. IC50 values were determined by plotting % inhibition versus log compound concentration and using a one site dose response model.

[14] = biological target: T1, FAP; assay: FAP plasma inhibition assay, human plasma; assay type: biochemical; conditions: human plasma diluted 1:40, Ala-Pro-AMC 75 μM
Method: This assay was adapted from the method described in Example 237 for detection of FAP target engagement enzyme activity in plasma. Plasma (anticoagulant K2EDTA) was used as the enzyme source: Human plasma (Pooled from AZ Biobank), Mouse plasma (AZ AST Biobank), and Cynomolgus plasma (BioIVT, #NHP00PLK2FNN, lot CYN222895). 384-Well black fluotrack PS plates (Greiner 781076) were used. 20 μL diluted plasma (Cynomolgus and Human plasma dilution 1:40, Mouse plasma dilution 1:67) in buffer (PBS, 0.1% BSA) was added to 0.6 μL compounds (in DMSO). Compounds were tested using 10 CR, 3 fold dilution series from 500 nM FAC. Two replicates for each assay point were run on the same plate. A fluorescence blank read was taken before substrate addition. […] Plates were incubated for 40 min at rt in the dark. […] IC50 values were determined by plotting % inhibition versus log compound concentration.
Target sequence in this assay (Q12884 24-760): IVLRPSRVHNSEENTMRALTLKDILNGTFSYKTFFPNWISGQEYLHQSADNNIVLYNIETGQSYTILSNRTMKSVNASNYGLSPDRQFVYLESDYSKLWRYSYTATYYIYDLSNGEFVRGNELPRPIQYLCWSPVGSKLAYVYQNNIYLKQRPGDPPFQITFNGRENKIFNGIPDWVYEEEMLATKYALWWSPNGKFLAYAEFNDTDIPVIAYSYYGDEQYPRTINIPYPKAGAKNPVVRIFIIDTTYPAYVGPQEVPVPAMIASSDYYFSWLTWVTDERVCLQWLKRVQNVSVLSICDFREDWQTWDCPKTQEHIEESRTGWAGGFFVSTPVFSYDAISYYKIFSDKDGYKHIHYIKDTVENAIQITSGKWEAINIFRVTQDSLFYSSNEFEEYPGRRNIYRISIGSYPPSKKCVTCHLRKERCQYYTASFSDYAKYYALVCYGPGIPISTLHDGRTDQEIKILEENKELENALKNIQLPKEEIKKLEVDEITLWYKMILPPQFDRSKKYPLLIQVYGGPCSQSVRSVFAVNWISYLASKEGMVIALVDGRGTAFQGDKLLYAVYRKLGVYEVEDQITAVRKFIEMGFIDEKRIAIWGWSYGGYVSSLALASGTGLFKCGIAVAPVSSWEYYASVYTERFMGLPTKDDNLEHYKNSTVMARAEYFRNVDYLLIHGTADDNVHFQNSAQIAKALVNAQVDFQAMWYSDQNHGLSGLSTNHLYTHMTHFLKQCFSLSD

| Structure (SMILES) | IC50 [2] [nM] | solubility [4] [µM] | microsomal CLint [5] [µL/min/mg] | IC50 [6] [nM] | rHep CLint [7] [μL/min/1E6] | IC50 [8] [nM] | hFAP Binding assay k(off) [9] [s⁻¹] | hFAP Binding assay k(on) [9] [M⁻¹ s⁻¹] | IC50 [10] [nM] | IC50 [11] [nM] | further results |
| --- | --- | --- | --- | --- | --- | --- | --- | --- | --- | --- | --- |
| C[C@H]1CN(c2ccc3nccc(C(=O)NCC(=O)N4CSC[C@H]4C#N)c3c2)CCO1 [Example 80, N-(2-((R)-4-Cyanothiazolidin-3-yl)-2-oxoethyl)-6-((S)-2-methylmorpholino)-quinoline-4-carboxamide] | > 100000 | 980 (≈ 417 µg/mL) | 7.5 | 9 | 2 | 1400 |  |  |  |  | hHep CLint [1]: <1 μL/min/1E6; Papp A→B [3]: 0.81 ×10⁻⁶ cm/s; Papp B→A [3]: 25 ×10⁻⁶ cm/s |
| N#C[C@@H]1CSCN1C(=O)CNC(=O)c1ccnc2ccc(-c3cnn(C4CC4)c3)cc12 [Example 170, (R)—N-(2-(4-Cyanothiazolidin-3-yl)-2-oxoethyl)-6-(1-cyclopropyl-1H-pyrazol-4-yl)quinoline-4-carboxamide] |  |  |  | 8.7 |  |  | 0.00018 | 10000000 | 0.5 | 260 |  |
| COC1(C)CN(c2ccc3nccc(C(=O)NCC(=O)N4CSC[C@H]4C#N)c3c2)C1 [Example 151, (R)—N-(2-(4-Cyanothiazolidin-3-yl)-2-oxoethyl)-6-(3-methoxy-3-methylazetidin-1-yl)quinoline-4-carboxamide] | > 100000 |  |  | 3.3 |  |  |  |  | 0.4 |  |  |
| Cc1nn(C)cc1-c1ccc2nccc(C(=O)NCC(=O)N3CSC[C@H]3C#N)c2c1 [Example 171, (R)—N-(2-(4-Cyanothiazolidin-3-yl)-2-oxoethyl)-6-(1,3-dimethyl-1H-pyrazol-4-yl)quinoline-4-carboxamide] | > 100000 |  |  | 2.5 |  |  |  |  | 0.3 |  |  |
| CC1(CF)CN(c2ccc3nccc(C(=O)NCC(=O)N4CSC[C@H]4C#N)c3c2)C1 [Example 27, (R)—N-(2-(4-Cyanothiazolidin-3-yl)-2-oxoethyl)-6-(3-(fluoromethyl)-3-methylazetidin-1-yl)quinoline-4-carboxamide] | > 100000 |  |  | 1.4 |  |  |  |  | 0.5 |  |  |
| N#C[C@@H]1CSCN1C(=O)CNC(=O)c1ccnc2ccc(N3CC4(C3)OCCO4)cc12 [Example 163, (R)—N-(2-(4-Cyanothiazolidin-3-yl)-2-oxoethyl)-6-(5,8-dioxa-2-azaspiro[3.4]octan-2-yl)quinoline-4-carboxamide] | > 100000 |  |  | 3 |  |  |  |  | 0.2 |  |  |
| N#C[C@@H]1CSCN1C(=O)CNC(=O)c1ccnc2ccc(-c3ccc(C(F)F)nc3)cc12 [Example 169, (R)—N-(2-(4-cyanothiazolidin-3-yl)-2-oxoethyl)-6-(6-(difluoromethyl)pyridin-3-yl)quinoline-4-carboxamide] |  | 26 (≈ 11.8 µg/mL) | 18 | 1.4 | 8.8 |  | 0.00096 | 6200000 |  | 440 | Kd [9]: 0.16 nM; IC50 [12]: 0.22 nM; IC50 [13]: 0.057 nM |
| C[C@@H]1CN(c2ccc3nccc(C(=O)NCC(=O)N4CSC[C@H]4C#N)c3c2)CCO1 [Example 72, N-(2-((R)-4-Cyanothiazolidin-3-yl)-2-oxoethyl)-6-((R)-2-methylmorpholino)-quinoline-4-carboxamide] | > 100000 | > 1000 | 9.7 | 7.2 | 2.7 | 2500 |  |  | 0.2 |  | hHep CLint [1]: <1 μL/min/1E6; Papp A→B [3]: 1.3 ×10⁻⁶ cm/s; Papp B→A [3]: 24 ×10⁻⁶ cm/s |
| N#C[C@@H]1CSCN1C(=O)CNC(=O)c1ccnc2ccc(N3CCO[C@@H](CF)C3)cc12 [Example 69, N-(2-((R)-4-Cyanothiazolidin-3-yl)-2-oxoethyl)-6-((R)-2-(fluoromethyl)morpholino)-quinoline-4-carboxamide] | > 100000 |  |  | 2.1 |  | 950 |  |  |  |  |  |
| N#C[C@@H]1CSCN1C(=O)CNC(=O)c1ccnc2ccc(N3CC(CF)C3)cc12 [Example 113, (R)—N-(2-(4-Cyanothiazolidin-3-yl)-2-oxoethyl)-6-(3-(fluoromethyl)azetidin-1-yl)quinoline-4-carboxamide] |  | 71 (≈ 29.4 µg/mL) | < 3 | 2 | 11 |  | 0.000045 | 1500000 | 0.5 | 490 | IC50 [14]: 0.2 nM; Kd [9]: 0.031 nM; IC50 [12]: 0.25 nM; hHep CLint [1]: <1.5 μL/min/1E6; Papp [3]: 20 ×10⁻⁶ cm/s; Papp A→B [3]: 1.9 ×10⁻⁶ cm/s; Papp B→A [3]: 23 ×10⁻⁶ cm/s; efflux ratio [3]: 12; IC50 [13]: 0.12 nM |
| N#C[C@@H]1CSCN1C(=O)CNC(=O)c1ccnc2ccc(N3CCC(F)CC3)cc12 [Example 205, (R)—N-(2-(4-Cyanothiazolidin-3-yl)-2-oxoethyl)-6-(4-fluoropiperidin-1-yl)quinoline-4-carboxamide] |  |  |  | 1.2 |  |  | 0.000046 | 2100000 | 0.3 | 640 |  |
| N#C[C@@H]1CSCN1C(=O)CNC(=O)c1ccnc2ccc(N3CCOCC3)cc12 [Example 67, (R)—N-(2-(4-Cyanothiazolidin-3-yl)-2-oxoethyl)-6-morpholinoquinoline-4-carboxamide] | 33000 |  |  | 0.18 |  |  |  |  | 0.52 |  |  |
| N#C[C@@H]1CSCN1C(=O)CNC(=O)c1ccnc2ccc(N3CCO[C@H](CF)C3)cc12 [Example 71, N-(2-((R)-4-Cyanothiazolidin-3-yl)-2-oxoethyl)-6-((S)-2-(fluoromethyl)morpholino)-quinoline-4-carboxamide] | > 100000 |  |  | 2.8 |  | 1900 |  |  | 0.2 |  |  |
